Molecules are shown by their SMILES. pEC50: −log10 of the molar value.

The experiment deals with T1, AXOR109 (Homo sapiens, UniProt Q8TDU6).
T1 construct: expressed in transfected cells; host or cells: melanophore cells, transfected by electroporation
T1 sequence (Q8TDU6 1-330): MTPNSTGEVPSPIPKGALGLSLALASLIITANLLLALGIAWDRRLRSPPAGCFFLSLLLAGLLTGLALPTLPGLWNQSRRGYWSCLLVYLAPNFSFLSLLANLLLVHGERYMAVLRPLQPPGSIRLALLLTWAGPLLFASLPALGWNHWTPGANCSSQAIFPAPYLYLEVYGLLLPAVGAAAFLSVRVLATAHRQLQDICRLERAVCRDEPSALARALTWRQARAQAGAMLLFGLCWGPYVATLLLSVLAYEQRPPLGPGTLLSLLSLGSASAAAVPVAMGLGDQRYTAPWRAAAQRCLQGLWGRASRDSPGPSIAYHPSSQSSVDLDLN
Nature of the experiment: Human AXOR109/Melanophore Assay. Conditions: melanophore assay; for Emax: 1 h; for pEC50: AXOR109 transfected melanophores. It is filed as cell-based. On the procedure:
AXOR109 is a Gs-coupled receptor and therefore increases intracellular cAMP leading to melanosome dispersion. Compounds of the present invention were characterized in a melanophore assay as described in Jayawickreme C K, et al., Current Protocols in Pharmacology (2005) 12.9.1-12.9.16. Briefly, melanophore cells are transfected by electroporation with AXOR109 expressing cDNA. Cells are then plated in 384 well clear bottom plates at 8E3 cells per well in 50 μl of conditioned fibroblast media (CFM). Compounds to be tested are serially diluted 3-fold in DMSO and further diluted 1:100 with melanophore assay buffer (MAB)+10 nM Melatonin to yield 11 point concentration response curves. Following 2 hour incubation with MAB+1% DMSO+10 nM Melatonin, initial transmittance is read on a TwisterII/Spectramax plate reader. Compounds are then added to the cells and incubated for 1 hour, and final transmittance is read as before. Results are compared to vehicle (MAB+1% DMSO+10 nM Melatonin) and to a positive control (MAB+1% DMSO+10 nM Melatonin+200 nM alpha-MSH). Data are calculated for each well as follows: 1-(Transmitance-final/Transmitance-initial). Each well result is then normalized to alpha-MSH, the system max control for Gs/Gq coupled receptors using the following equation: (ObjX−Control1)/(Control2−Control1)*100. The percent system max is used to generate the pEC50 using the equation: y=((Vmax*x̂n)/(K̂n+x̂n))+Y2. Acceptable Z-prime values should be >0.4. Compounds of the present invention have a pEC50≧5.0 in the above described assay.

Where [1] appears, read: normalized to alpha-MSH system max.

In turn, `CCc1cc(S(=O)(=O)N2C[C@H](C)N(S(=O)(=O)c3ccc(OC)c(OC)c3)C[C@@H]2C)ccc1OC` [Example 68, (2S,5S)-1-{[3,4-bis(methyloxy)phenyl]sulfonyl}-4-{[3-ethyl-4-(methyloxy)phenyl]sulfonyl}-2,5-dimethylpiperazine] gave a pEC50 of 6.00 to 6.90. Under setting [1], this compound yielded a maximal effect (Emax) of 76 to 100%.

`COc1ccc(S(=O)(=O)N(C)CCN(C)S(=O)(=O)c2ccc3c(c2)OCCCO3)cc1OC` [Example 73, N-{2-[{[3,4-bis(methyloxy)phenyl]sulfonyl}(methyl)amino]ethyl}-N-methyl-3,4-dihydro-2H-1,5-benzodioxepin-7-sulfonamide]: the pEC50 was 5.00 to 5.90. Besides, under setting [1], the Emax lay in the range of 76 to 100%.

Compound `COc1ccc(S(=O)(=O)N2C[C@H](C)N(S(=O)(=O)c3ccc4c(c3)OCO4)C[C@@H]2C)cc1OC` [Example 70, (2S,5S)-1-(1,3-benzodioxol-5-ylsulfonyl)-4-{[3,4-bis(methyloxy)phenyl]sulfonyl}-2,5-dimethylpiperazine] gave a pEC50 of 6.00 to 6.90. Further, under setting [1], the Emax is more than 100%.

In turn, `COc1ccc(S(=O)(=O)N2C[C@H](C)N(S(=O)(=O)c3ccc4c(c3)OCCO4)C[C@@H]2C)cc1OC` [Example 71, (2S,5S)-1-{[3,4-bis(methyloxy)phenyl]sulfonyl}-4-(2,3-dihydro-1,4-benzodioxin-6-ylsulfonyl)-2,5-dimethylpiperazine] gave a pEC50 of 6.00 to 6.90. In addition, the Emax under setting [1] fell in the range of 76 to 100%.

Compound `COc1ccc(S(=O)(=O)N2[C@H](C)CN(S(=O)(=O)c3ccc(-c4cnco4)cc3)C[C@@H]2C)cc1OC` [Example 34, 1-{[3,4-bis(methyloxy)phenyl]sulfonyl}-2,6-cis-dimethyl-4-{[4-(1,3-oxazol-5-yl)phenyl]sulfonyl}piperazine] had a negative-log EC50 (pEC50) of 5.00 to 5.90. Under setting [1], this compound gave a maximum response (Emax) of 51 to 75%.

`COc1ccc(S(=O)(=O)N2CCCN(S(=O)(=O)c3ccc(OC)c(OC)c3)CC2)cc1F` [Example 7, 1-{[3,4-bis(methyloxy)phenyl]sulfonyl}-4-{[3-fluoro-4-(methyloxy)phenyl]sulfonyl}hexahydro-1H-1,4-diazepine] gave a pEC50 of 5.00 to 5.90. The compound further showed an Emax under setting [1] of 0 to 50%.

`COc1ccc(S(=O)(=O)N2CCN(S(=O)(=O)c3ccc(OC)c(OC)c3)C(C3CCCCC3)C2)cc1OC` (centres unmarked) [Example 24, 1,4-bis{[3,4-bis(methyloxy)phenyl]sulfonyl}-2-cyclohexylpiperazine] showed a pEC50 of 5.00 to 5.90. The Emax under setting [1] was 51 to 75%.

`COc1ccc(S(=O)(=O)N2CCC(N(CC3CCC3)S(=O)(=O)c3ccc(OC)c(OC)c3)C2)cc1OC` (centres unmarked) [Example 58, N-(1-{[3,4-bis(methyloxy)phenyl]sulfonyl}-3-pyrrolidinyl)-N-(cyclobutylmethyl)-3,4-bis(methyloxy)benzenesulfonamide] gave a pEC50 of 5.00 to 5.90. The compound also registered an Emax under setting [1] of 76 to 100%.

On to `COc1ccc(S(=O)(=O)NCCN(C)S(=O)(=O)c2ccc(OC)c(OC)c2)cc1OC` [Example 42, N-[2-({[3,4-bis(methyloxy)phenyl]sulfonyl}amino)ethyl]-N-methyl-3,4-bis(methyloxy)benzenesulfonamide], for which the pEC50 was 5.00 to 5.90. The same compound showed an Emax under setting [1] of 51 to 75%.

In the case of `COc1ccc(S(=O)(=O)N2CCCCC(N(C)S(=O)(=O)c3ccc(OC)c(OC)c3)C2)cc1OC` (centres unmarked) [Example 92], the pEC50 was 5.00 to 5.90. Under setting [1], this compound came in with an Emax of 51 to 75%.

`CCN(C[C@H](C)N(CC)S(=O)(=O)c1ccc(OC)c(OC)c1)S(=O)(=O)c1ccc(OC)c(OC)c1` [Example 74, N,N′-(2S)-1,2-propanediylbis[N-ethyl-3,4-bis(methyloxy)benzenesulfonamide]] gave a pEC50 of 6.00 to 6.90. For the same compound, the maximal effect (Emax) under setting [1] is 76 to 100%.

In turn, `COc1ccc(S(=O)(=O)N2CCN(S(=O)(=O)c3ccc(OC)c(OC)c3)CC(=O)C2)cc1OC` [Example 51, 1,4-bis{[3,4-bis(methyloxy)phenyl]sulfonyl}hexahydro-6H-1,4-diazepin-6-one] showed a pEC50 of 5.00 to 5.90. This compound gave an Emax under setting [1] of 76 to 100%.

The compound `COc1ccc(S(=O)(=O)N2C[C@H](C)N(S(=O)(=O)c3ccc(OC)c(OC)c3)C[C@@H]2C)cc1OC` [Example 47, (2S,5S)-1,4-bis{[3,4-bis(methyloxy)phenyl]sulfonyl}-2,5-dimethylpiperazine] had a pEC50 of more than 6.90.

Compound `CCN(C1CCCN(S(=O)(=O)c2ccc(OC)c(OC)c2)C1)S(=O)(=O)c1ccc(OC)c(OC)c1` (centres unmarked) [Example 93, N-(1-{[3,4-bis(methyloxy)phenyl]sulfonyl}-3-piperidinyl)-N-ethyl-3,4-bis(methyloxy)benzenesulfonamide] had a pEC50 of 5.00 to 5.90. Besides, the Emax under setting [1] is 51 to 75%.

In turn, `COc1ccc(S(=O)(=O)N2C[C@@H](C)N(S(=O)(=O)c3ccc(OC)c(OC)c3)[C@@H](C)C2)cc1OC` [Example 54, (2R,6S)-1,4-bis{[3,4-bis(methyloxy)phenyl]sulfonyl}-2,6-dimethylpiperazine] had a pEC50 of 6.00 to 6.90. Also, the “% Max” value under setting [1] is listed as “* (“*” = 0% to 50%)”.

In turn, `COc1ccc(S(=O)(=O)N(C)CCN(C2CC2)S(=O)(=O)c2ccc(OC)c(OC)c2)cc1OC` [Example 88] had a pEC50 of 6.00 to 6.90. This compound also returned an Emax under setting [1] of 76 to 100%.

Take `COc1ccc(S(=O)(=O)N2CCC(NS(=O)(=O)c3cccc4cccnc34)C2)cc1OC` (centres unmarked) [Example 16, N-(1-{[3,4-bis(methyloxy)phenyl]sulfonyl}-3-pyrrolidinyl)-8-quinolinesulfonamide]: the pEC50 was 5.00 to 5.90.

`COc1ccc(S(=O)(=O)N2C[C@@H](C)N(S(=O)(=O)c3ccc4oc(=O)ccc4c3)[C@@H](C)C2)cc1OC` [Example 37, 6-[(4-{[3,4-bis(methyloxy)phenyl]sulfonyl}-2,6-cis-dimethyl-1-piperazinyl)sulfonyl]-2H-chromen-2-one] gave a pEC50 of 5.00 to 5.90. For the same compound, the Emax under setting [1] lay in the range of 0 to 50%.

`CCCN(C[C@@H]1CCCN1S(=O)(=O)c1ccc(OC)c(OC)c1)S(=O)(=O)c1ccc(OC)c(OC)c1` [Example 96, N-[((2S)-1-{[3,4-bis(methyloxy)phenyl]sulfonyl}-2-pyrrolidinyl)methyl]-3,4-bis(methyloxy)-N-propylbenzenesulfonamide] gave a pEC50 of 6.00 to 6.90. Under setting [1], this compound gave an Emax of 76 to 100%.

Compound `COc1ccc(S(=O)(=O)N2[C@H](C)CN(S(=O)(=O)c3ccc(OC)c(OC)c3)C[C@@H]2C)cc1O` [Example 38, 5-[(4-{[3,4-bis(methyloxy)phenyl]sulfonyl}-2,6-cis-dimethyl-1-piperazinyl)sulfonyl]-2-(methyloxy)phenol] had a pEC50 of 5.00 to 5.90. This compound gave an Emax under setting [1] of 51 to 75%.

As to `COc1ccc(S(=O)(=O)N2CCN(S(=O)(=O)c3c(C)cccc3Cl)CC2)cc1OC` [Example 5, 1-{[3,4-bis(methyloxy)phenyl]sulfonyl}-4-[(2-chloro-6-methylphenyl)sulfonyl]piperazine], the pEC50 is 5.00 to 5.90. The compound further had an Emax under setting [1] of 76 to 100%.

`COc1ccc(S(=O)(=O)N2CCN(S(=O)(=O)c3ccc(OC)c(OC)c3)[C@@H](C)C2)cc1OC` [Example 19, (2S)-1,4-bis{[3,4-bis(methyloxy)phenyl]sulfonyl}-2-methylpiperazine]: the pEC50 was 5.00 to 5.90. Besides, the Emax under setting [1] fell in the range of 76 to 100%.

The compound `COc1ccc(S(=O)(=O)N2C[C@@H](C)N(S(=O)(=O)c3ccc(OC)c(OC(F)(F)F)c3)[C@@H](C)C2)cc1OC` [Example 36, 4-{[3,4-bis(methyloxy)phenyl]sulfonyl}-2,6-cis-dimethyl-1-({4-(methyloxy)-3-[(trifluoromethyl)oxy]phenyl}sulfonyl)piperazine] gave a pEC50 of 6.00 to 6.90. Besides, the Emax under setting [1] fell in the range of 51 to 75%.

`COc1ccc(S(=O)(=O)N2CCN(S(=O)(=O)c3ccc(OC)c(OC)c3)CC2)cc1OC` [Example 4, 1,4-bis{[3,4-bis(methyloxy)phenyl]sulfonyl}piperazine]: the pEC50 is 5.00 to 5.90. Also, under setting [1], the Emax fell in the range of 51 to 75%.

With `COc1ccc(S(=O)(=O)N(C)CCN(C)S(=O)(=O)c2ccc(OC)c(OC)c2)cc1F` [Example 11, N-{2-[{[3,4-bis(methyloxy)phenyl]sulfonyl}(methyl)amino]ethyl}-3-fluoro-N-methyl-4-(methyloxy)benzenesulfonamide], the pEC50 is 6.00 to 6.90. This compound also had an Emax under setting [1] of 0 to 50%.

With `COc1ccc(S(=O)(=O)N2C[C@@H](C)N(S(=O)(=O)c3ccc(OC)c(OC)c3)[C@H](C)C2)cc1OC` [Example 17, (2R,6R)-1,4-bis{[3,4-bis(methyloxy)phenyl]sulfonyl}-2,6-dimethylpiperazine], the pEC50 is 6.00 to 6.90. For the same compound, the Emax under setting [1] is 0 to 50%.

The term Emax denotes the size of the effect at its maximum, as opposed to the concentration needed. As a reminder, the pEC50 is the EC50 on a negative log10 scale, so that one unit is a factor of ten. A high value points to a low EC50.

Values taken from patent US20090069302A1 (SMITHKLINE BEECHAM CORPORATION, priority 2006, published 2009).
